Laboratory results as given in patent US10028961B2, “Therapeutically active compounds and their methods of use” (AGIOS PHARMACEUTICALS, INC., priority 2013, dated 2018).

Tests used:
[1] = biological target: IDH1 R132C (Homo sapiens (Human), UniProt O75874, R132C); assay: In vitro assay IDH1 R132C homodimer, NADPH depletion assay; format: biochemical
Description: (§1) The following describes the experimental procedures that can be used to obtain data on columns 3 and 6 of Table 4.
(§2) A test compound is prepared as 10 mM stock in DMSO and diluted to 50× final concentration in DMSO, for a 50 μl reaction mixture. IDH enzyme activity converting alpha-ketoglutarate to 2-hydroxyglutaric acid is measured using a NADPH depletion assay. In the assay the remaining cofactor is measured at the end of the reaction with the addition of a catalytic excess of diaphorase and resazurin, to generate a fluorescent signal in proportion to the amount of NADPH remaining. […] The reaction is started with the addition of 10 μl of Substrate Mix ([…], 5 mM alpha-ketoglutarate, in Assay Buffer) and the mixture is incubated for 90 minutes at room temperature.
The concentration of NADPH and alpha-ketoglutarate in the Substrate Buffer is 20 μM and 1 mM, respectively.

[2] = biological target: IDH1-R132 homodimer enzyme (R132H) (Homo sapiens (Human), UniProt O75874, R132H); assay: In vitro assay IDH1-R132H homodimer, NADPH depletion assay; format: biochemical
Description: as §1, §2

[3] = biological target: IDH1 wt/IDH1 R132C heterodimer (Homo sapiens (Human), UniProt O75874, R132C); assay: In vitro assay for IDH1m R132C inhibitors, IDH1 wt/IDH1 R132C heterodimer, NADPH depletion (diaphorase/resazurin); format: biochemical; details: NADPH/NADP
Description: The following describes the experimental procedures that can be used to obtain data on columns 2 and 4 of Table 4 and column 2 of Table 5.
In the primary reaction, the reduction of α-KG acid to 2-HG is accompanied by a concomitant oxidation of NADPH to NADP. The amount of NADPH remaining at the end of the reaction time is measured in a secondary diaphorase/resazurin reaction in which the NADPH is consumed in a 1:1 molar ratio with the conversion of resazurin to the highly fluorescent resorufin.
The mixture of compound, enzyme, and cofactor is pre-incubated at room temperature for 1 hr prior to the addition of alpha-ketoglutarate. To perform the secondary reaction, 10 uL of 1× buffer containing 36 μg/ml diaphorase and […] resazurin is added to the primary reaction and incubated for a further 5 minutes at 25° C. Florescence is read on a Spectramax platereader at Ex 544 Em 590. Compounds or compound dilutions are prepared in 100% DMSO concentration and diluted 1:50 into the final reaction. […] IC50s are determined.
IDH1 or IDH2 wildtype (wt) and mutant heterodimers are expressed and purified by methods known in the art. For example, IDH1wt/R132m heterodimer is expressed and purified as follows. Co-expression of IDH1wt-his and IDH1R132C-flag is carried out in sf9 insect cells. Cells (25 g) are resuspended in 250 ml of 50 mM Tirs, 500 mM NaCl, pH7.4, at 4° C. with stirring. Cells are disrupted with 4 passes through an M-Y110 Micro fluidizer (Microfluidics) set to 500 psi, and then centrifuged at 22,000 rcf for 20 min at 4° C. The supernatant is harvested and loaded at 15 cm/h on a Histrap FF 5*1 ml column (GE) which is equilibrated with 50 mM Tirs, 500 mM NaCl, pH7.4. Host cell contaminants are removed by washing the column with equilibration buffer followed by equilibration buffer containing 20 mM imidazole and 60 mM imidazole to baseline. IDH1wt-his homodimer and IDH1wt-his/IDH1R132C-flag are eluted by equilibration buffer containing 250 mM imidazole. Fractions eluted by 250 mM imidazole are pooled together and loaded at 15 cm/h onto a column pre-packed with 10 ml ANTI-FLAG® M2 Affinity Gel (Sigma), the column is equilibrated with 50 mM Tris, 500 mM NaCl, pH7.4. After washing with equilibration buffer, IDH1wt-his/IDH1R132C-flag heterodimer is eluted by equilibration buffer containing flag peptide (0.2 mg/ml). Aliquots of IDH1wt-his/IDH1R132C-flag are flash frozen in liquid N2 and stored at −80° C. Same conditions are used for the purification of IDH1wt-his/IDH1R132H-flag.

[4] = biological target: IDH1 wt/IDH1 R132H heterodimer (Homo sapiens (Human), UniProt O75874, R132H); assay: In vitro assay for IDH1m R132H inhibitors, IDH1 wt/IDH1 R132H heterodimer, NADPH depletion (diaphorase/resazurin); format: biochemical; details: IDH1 wt/R132H heterodimer, NADPH/NADP, not saturated; read-out: IDH1 wt/R132H NADPH/NADP IC50 not saturated
Method in brief: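 Read-out is NADPH left after α-KG reduction to 2-HG, measured via resorufin fluorescence after 5 min diaphorase/resazurin step at 25° C. Enzyme is sf9-expressed IDH1wt-his/IDH1R132H-flag heterodimer, pre-incubated 1 hr at room temperature with compound and cofactor. IC50s from DMSO stocks diluted 1:50.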

[5] = biological target: IDH2 R140Q (Homo sapiens (Human), UniProt P48735, R140Q); assay: In vitro assay for IDH2m R140Q inhibitors, cofactor depletion assay; format: biochemical; details: IDH2 R140Q enzyme
Method in brief: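 Remaining cofactor measured fluorimetrically: diaphorase/resazurin Stop Mix […], halting the reaction. Before that, mutant enzyme and compound sat 1 h at RT, then substrate mix (4 μM NADPH, 1.6 mM α-KG) was added for 16 h at RT.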

[6] = test system: U87MG pLVX-IDH2 R140Q-neo cells; assay: U87MG pLVX-IDH2 R140Q-neo cell based assay, 2-HG by LC-MS; details: Homo sapiens, U-87 MG
[7] = test system: Neurosphere cells (TS603); assay: Cellular assay for IDH1m R132H inhibitors, 2-HG by LC-MS in neurosphere cells (TS603); format: cell-based; details: 2-HG in media at 48 hours
Method in brief: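 TS603 neurosphere cells in NeuroCult medium were dosed with compound (0.25% DMSO final) at 37 C, 5% CO2. After 48 hours, medium 2-HG was measured by LC-MS. At 72 hours, viability was read by CellTiter-Glo luminescence.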

[8] = test system: HT1080 cells; assay: Cellular assay for IDH1m R132C inhibitors, 2-HG by LC-MS in HT1080 cells; format: cell-based; details: Homo sapiens, HT-1080
Method in brief: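 2-HG levels were measured by LC-MS in culture medium sampled 48 h after compound addition (0.2% DMSO) to HT1080 cells seeded overnight at 5000 cells/well. A CellTiter-Glo luminescence read at 72 h gave cell viability.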

[9] = biological target: IDH1-R132H homodimer enzyme (Homo sapiens (Human), UniProt O75874, R132H); assay: In vitro assay IDH1-R132H homodimer, NADPH depletion assay with NADPH/NADP preincubation; format: biochemical; details: 5 μM NADPH and 37.5 μM NADP
Method in brief: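 Compounds were added from DMSO at 50× final concentration, and the mutant enzyme was incubated 60 min at room temperature after starting with a substrate mix holding NADPH and 5 mM alpha-ketoglutarate. Residual cofactor, read by fluorescence after excess diaphorase and resazurin, reflects enzyme turnover.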

Sequence of IDH1 wt/IDH1 R132H heterodimer (O75874 whole entry R132H): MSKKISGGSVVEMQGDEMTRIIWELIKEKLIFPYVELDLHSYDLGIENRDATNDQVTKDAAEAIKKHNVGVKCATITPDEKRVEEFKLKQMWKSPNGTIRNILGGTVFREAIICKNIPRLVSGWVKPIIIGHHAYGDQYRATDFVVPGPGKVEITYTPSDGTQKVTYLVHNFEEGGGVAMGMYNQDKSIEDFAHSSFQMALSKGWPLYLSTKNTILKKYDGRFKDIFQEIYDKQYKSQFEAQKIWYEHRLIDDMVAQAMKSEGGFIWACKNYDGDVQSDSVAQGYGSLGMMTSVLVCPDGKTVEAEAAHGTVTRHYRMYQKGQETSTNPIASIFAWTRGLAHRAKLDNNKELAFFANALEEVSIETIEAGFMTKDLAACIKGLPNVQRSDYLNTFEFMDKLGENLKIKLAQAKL
Sequence of IDH1 wt/IDH1 R132H heterodimer (O75874 whole entry, stated change not applied): as the sequence (O75874 whole entry R132H) above, with H132R counted along it
Sequence of IDH1-R132 homodimer enzyme (R132H) (O75874 whole entry R132H): as the sequence (O75874 whole entry R132H) above
Sequence of IDH1-R132H homodimer enzyme (O75874 whole entry R132H): as above
Sequence of IDH2 R140Q (P48735 40-452 R140Q): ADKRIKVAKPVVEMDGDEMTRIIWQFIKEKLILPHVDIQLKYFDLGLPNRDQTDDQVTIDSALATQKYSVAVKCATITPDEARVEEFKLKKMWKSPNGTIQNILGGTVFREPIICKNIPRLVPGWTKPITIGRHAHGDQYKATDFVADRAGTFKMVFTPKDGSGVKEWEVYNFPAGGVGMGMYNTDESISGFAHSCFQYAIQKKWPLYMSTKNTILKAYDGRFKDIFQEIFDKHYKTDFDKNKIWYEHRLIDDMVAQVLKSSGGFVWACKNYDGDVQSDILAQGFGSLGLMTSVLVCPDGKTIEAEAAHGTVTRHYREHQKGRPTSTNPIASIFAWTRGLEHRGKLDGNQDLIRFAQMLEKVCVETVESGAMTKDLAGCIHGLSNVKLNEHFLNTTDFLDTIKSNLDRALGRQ
Sequence of IDH1 R132C (O75874 whole entry R132C): as the sequence (O75874 whole entry R132H) above, with H132C counted along it
Sequence of IDH1 wt/IDH1 R132C heterodimer (O75874 whole entry R132C): as the sequence (O75874 whole entry R132H) above, with H132C counted along it
Sequence of IDH1 wt/IDH1 R132C heterodimer (O75874 whole entry, stated change not applied): as the sequence (O75874 whole entry R132H) above, with H132R counted along it

SMILES	IC50 [3] [nM]	IC50 [4] [nM]	IC50 [6] [nM]	IC50 [9] [nM]	other results
CC(C)Nc1nc(NC(C)C)nc(-c2cccc(C(F)(F)F)n2)n1 [Compound 3]	–	–	–	–	IC50 [1]: 50 to 100 nM; IC50 [2]: 100 to 1000 nM
C[C@@H](Nc1nc(NCC(N)=O)nc(-c2cccc(C(F)(F)F)n2)n1)C1CC1 [Compound 5]	–	–	–	–	IDH1 R132C IC50 [1]: No Fit; IC50 [2]: > 1000 nM
C[C@@H](Nc1nc(N[C@H](C)C2CC2)nc(-c2ccccc2F)n1)C1CC1 [Compound 6]	–	–	–	–	IC50 [1]: 100 to 1000 nM; IC50 [2]: > 1000 nM
CC(=O)CNc1nc(N[C@H](C)C2CC2)nc(-c2cccc(C(F)(F)F)n2)n1 [Compound 15]	–	–	–	–	IC50 [1]: > 1000 nM; IC50 [2]: > 1000 nM
C[C@@H](Nc1nc(N[C@@H]2C[C@H]2c2ccccc2)nc(-c2cccc(C(F)(F)F)n2)n1)C1CC1 [Compound 23]	–	–	–	–	IC50 [1]: 50 to 100 nM; IC50 [2]: 50 to 100 nM
C[C@@H](Nc1nc(NCc2ccccn2)nc(-c2cccc(C(F)(F)F)n2)n1)C1CC1 [Compound 24, (R)-N^2-(1-cyclopropylethyl)-N^4-(pyridin-2-ylmethyl)-6-(6-(trifluoro-methyl)pyridin-2-yl)-1,3,5-triazine-2,4-diamine]	–	–	–	–	IC50 [1]: > 1000 nM; IC50 [2]: > 1000 nM
FC1(F)CCC(Nc2nc(NC3CCNC3)nc(-c3cccc(C(F)(F)F)n3)n2)C1 (centres unmarked) [Compound 91]	≥ 1000	> 1000	–	–	–
C[C@@H](Nc1nc(N[C@H](C)C2CC2)nc(-c2cccnc2)n1)C1CC1 [Compound 92, N^2,N^4-bis((R)-1-cyclopropylethyl)-6-(pyridin-3-yl)-1,3,5-triazine-2,4-diamine]	≥ 1000	> 1000	–	–	–
Nc1ccc(F)c(-c2nc(NC3CCC(F)(F)CC3)nc(NC3CCC(F)(F)CC3)n2)n1 [Compound 249]	–	50 to 100	100 to 1000	> 1000	IC50 [8]: 100 to 1000 nM; IC50 [5]: < 50 nM; IC50 [7]: 50 to 100 nM
Fc1cc(F)cc(Nc2nc(NC3CCC(F)(F)CC3)nc(-c3nc(F)ccc3F)n2)c1 [Compound 260]	50 to 100	100 to 1000	< 50	–	IC50 [8]: > 1000 nM; IC50 [5]: < 50 nM
FC1(F)CCC(Nc2nc(NC3CCC(F)(F)CC3)nc(-n3cc(Cl)cn3)n2)CC1 [Compound 302]	100 to 1000	100 to 1000	100 to 1000	> 1000	IC50 [5]: 100 to 1000 nM
Cc1cc(-c2nc(NC3CC(F)(F)C3)nc(NC3CC(F)(F)C3)n2)no1 [Compound 311]	≥ 1000	> 1000	–	> 1000	–
COc1ccc(F)c(-c2nc(NC3CCC(F)(F)CC3)nc(NC3CCC(F)(F)CC3)n2)n1 [Compound 321]	≥ 1000	> 1000	–	> 1000	–
FC(F)(F)c1cccc(-c2nc(NCC3CC3)cc(NCC3CC3)n2)n1 [Compound 419]	–	–	100 to 1000	100 to 1000	IC50 [2]: > 1000 nM

The next lines start with results.

IC50 [3] [nM]	IC50 [4] [nM]	IC50 [6] [nM]	IC50 [9] [nM]	SMILES	other results
< 50	50 to 100	–	–	FC1(F)CCC(Nc2nc(NC3CCOC3)nc(-c3cccc(C(F)(F)F)n3)n2)C1 (centres unmarked) [Compound 52]	–
50 to 100	100 to 1000	–	–	CC(C)(C)OC(=O)N1CCC(Nc2nc(NC3CCC(F)(F)C3)nc(-c3cccc(C(F)(F)F)n3)n2)C1 (centres unmarked) [Compound 53]	–
50 to 100	100 to 1000	–	–	CC(=O)N1CCC(Nc2nc(NC3CCC(F)(F)C3)nc(-c3cccc(C(F)(F)F)n3)n2)C1 (centres unmarked) [Compound 55]	–
< 50	50 to 100	–	–	CS(=O)(=O)N1CCC(Nc2nc(NC3CCC(F)(F)C3)nc(-c3cccc(C(F)(F)F)n3)n2)C1 (centres unmarked) [Compound 56]	–
< 50	< 50	–	–	C[C@@H](Nc1nc(NC2CC3(C2)CC(F)(F)C3)nc(-c2cccc(C(F)(F)F)n2)n1)C1CC1 [Compound 58]	–
50 to 100	100 to 1000	–	–	CC(C)(C)OC(=O)N1CCC(Nc2nc(NC3CCC(F)(F)C3)nc(-c3cccc(C(F)(F)F)n3)n2)C1 (centres unmarked) [Compound 90]	–
< 50	< 50	< 50	–	Fc1cc(F)cc(Nc2nc(NC3CCC(F)(F)CC3)nc(-c3cccc(C(F)(F)F)n3)n2)c1 [Compound 125]	IC50 [5]: < 50 nM; IC50 [7]: < 50 nM
–	< 50	< 50	100 to 1000	FC(F)(F)CNc1nc(Nc2ccnc(C(F)(F)F)c2)nc(-c2cccc(C(F)(F)F)n2)n1 [Compound 232]	IC50 [8]: > 1000 nM; IC50 [5]: < 50 nM; IC50 [7]: < 50 nM
50 to 100	50 to 100	–	100 to 1000	N#Cc1ccc2c(c1)CC(Nc1nc(NC3CCC(F)(F)C3)nc(-c3cccc(C(F)(F)F)n3)n1)C2 (centres unmarked) [Compound 242]	–
–	50 to 100	100 to 1000	100 to 1000	FC1(F)CC(Nc2nc(NC3CC(F)(F)C3)nc(-c3ccnc(C(F)(F)F)n3)n2)C1 [Compound 251]	IC50 [8]: 100 to 1000 nM; IC50 [5]: < 50 nM; IC50 [7]: < 50 nM
100 to 1000	100 to 1000	100 to 1000	> 1000	FC1(F)CCC(Nc2nc(NC3CCC(F)(F)CC3)nc(-c3ccnc(C(F)(F)F)n3)n2)CC1 [Compound 270]	IC50 [5]: 100 to 1000 nM
100 to 1000	100 to 1000	–	> 1000	Fc1ccc(F)c(-c2nc(NC3CCC(F)(F)CC3)nc(NC3CCC(F)(F)CC3)n2)n1 [Compound 276]	–
100 to 1000	100 to 1000	100 to 1000	> 1000	C[C@@H](Nc1nc(N[C@H](C)C2CC2)nc(-n2cc(I)cn2)n1)C1CC1 [Compound 279]	IC50 [5]: 100 to 1000 nM
≥ 1000	100 to 1000	–	> 1000	FC1(F)CCC(Nc2nc(NC3CCC(F)(F)CC3)nc(-c3cccc(OC(F)(F)F)n3)n2)CC1 [Compound 296]	–
100 to 1000	100 to 1000	–	> 1000	FC1(F)CCC(Nc2nc(NC3CCC(F)(F)CC3)nc(-c3c[nH]nc3C(F)(F)F)n2)CC1 [Compound 297]	–
≥ 1000	100 to 1000	–	> 1000	Cc1nc(-c2nc(NC3CC(F)(F)C3)nc(NC3CC(F)(F)C3)n2)co1 [Compound 301]	–
